The results in this text go back to patent US9469645B2, “Compounds and compositions for the treatment of parasitic diseases” (Novartis AG, priority 2009, dated 2016).

Each structure is given as a SMILES string. pEC50: −log10 of the molar value.

For one test, the system named is 3D7 P. falciparum strain. In words: parasite proliferation assay in infected red blood cells (SYBR Green I). The format is cell-based, Plasmodium falciparum. Conditions: Plasmodium falciparum, 3D7, Erythrocyte, 3D7 strain; read-out: EC50 3D7 strain. In outline:
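P. falciparum 3D7 grown in O+ human erythrocytes to 3–8% parasitemia and exposed to compounds. Proliferation read as the increase in parasite DNA. Detection used SYBR Green I in saponin/triton-X/EDTA lysis buffer, with overnight lysis at room temperature.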

The next test relates to W2 strain. In words: parasite proliferation assay in infected red blood cells (SYBR Green I), W2 strain. The class given is cell-based, Plasmodium falciparum. To be noted: Plasmodium falciparum, Erythrocyte. The text has this: Compounds of the invention can be assayed to measure their capacity to inhibit proliferation of parasitemia in infected red blood cells. The proliferation is quantified by the addition of SYBR Green I (INVITROGEN)® dye which has a high affinity for double stranded DNA.

One may read the pEC50 as −log10 of the EC50, conventionally taken in molar units. `CC(C)[C@H](O)C(=O)N1CCn2c(nc(-c3ccc(F)cc3)c2Nc2ccc(F)cc2)C1` [Compound 470]: the pEC50 in the test with 3D7 P. falciparum strain was 8.00; in the test with W2 strain, 7.92.

For `Cc1ccc(Nc2c(-c3ccc(F)cc3)nc3n2CC(=O)NC3(C)C)cc1C#N` [Compound 535], the figures for the pEC50 in the test with 3D7 P. falciparum strain and in the test on W2 strain were 5.57 and 5.63, respectively.

In the case of `Cc1ccc(Nc2c(-c3ccc(F)cc3)nc3n2C(C)(C)C(=O)N(C)C3(C)C)cc1` [Compound 538], the pEC50 was 5.12 in the test with 3D7 P. falciparum strain and 5.09 with W2 strain.

Turning to `CC1(C)c2nc(-c3ccc(F)cc3)c(Nc3ccc(F)c(C#N)c3)n2CCN1C(=O)CN` [Compound 522], the negative logarithm of the EC50 (pEC50) in the test on 3D7 P. falciparum strain was 8.77; in the test on W2 strain it was 8.70.

On to `CC1(C)Cn2c(nc(-c3ccc(F)cc3)c2Nc2ccc(F)c(F)c2)CN1C(=O)CN` [Compound 575], for which the figures for the negative-log EC50 (pEC50) with 3D7 P. falciparum strain and in the test with W2 strain were 7.10 and 7.09, respectively.

On to `Cc1ccc(Nc2c(-c3ccc(F)cc3)nc3n2CCN(C(=O)C(C)Nc2ccc(C)cc2)C3)cc1` (stereo not shown) [Compound 407], for which the negative-log EC50 (pEC50) with 3D7 P. falciparum strain is 6.15; with W2 strain, 6.28.

For `Cc1ccc(Nc2c(-c3ccc(F)cc3)nc3n2CCN(C(=O)[C@@H](C)NCc2ccccc2)C3)cc1` [Compound 402], the pEC50 with 3D7 P. falciparum strain is 6.92; with W2 strain, 6.91.

For `CC(C)[C@H](O)C(=O)N1CCn2c(nc(-c3ccc(F)cc3)c2Nc2ccc(Cl)cc2)C1` [Compound 455], the negative logarithm of the EC50 (pEC50) was 8.00 with 3D7 P. falciparum strain and 8.10 in the test on W2 strain.

For `Cc1ccc(Nc2c(-c3cc(F)ccc3F)nc3n2CCN(C(=O)CN)C3)cc1` [Compound 418], the negative-log EC50 (pEC50) is 7.05 in the test with 3D7 P. falciparum strain and 6.84 with W2 strain.

As to `Cc1ccc(Nc2c(-c3ccc(F)cc3)nc3n2CC(=O)NC3(C)C)cc1Cl` [Compound 546], the pEC50 with 3D7 P. falciparum strain was 7.52; with W2 strain it was 7.28.

With `CC1(C)c2nc(-c3ccc(F)cc3)c(Nc3ccc(S(C)(=O)=O)cc3)n2CCN1C(=O)CN` [Compound 570], the pEC50 in the test with 3D7 P. falciparum strain and in the test with W2 strain was 5.25 each time.

Regarding `CC(C)C[C@H](N)C(=O)N1CCn2c(nc(-c3ccc(F)cc3)c2Nc2ccc(F)cc2)C1` [Compound 468], the negative-log EC50 (pEC50) in the test on 3D7 P. falciparum strain is 7.52; in the test with W2 strain it was 7.70.

`Cc1ccc(Nc2c(-c3cccc(F)c3)nc3n2C(C)(C)CN(C(=O)[C@@H](O)C(C)C)C3)cc1` [Compound 592]: the negative logarithm of the EC50 (pEC50) is 5.22 in the test on 3D7 P. falciparum strain and 5.28 with W2 strain.

For the molecule `N[C@@H](Cc1ccc(F)cc1)C(=O)N1CCn2c(nc(-c3ccc(F)cc3)c2Nc2ccc(F)cc2)C1` [Compound 473], the results for the negative-log EC50 (pEC50) with 3D7 P. falciparum strain and with W2 strain were 7.52 and 7.68, respectively.

In the case of `O=C([C@@H]1CCN1)N1CCn2c(nc(-c3ccc(F)cc3)c2Nc2ccc(F)c(F)c2)C1` [Compound 441], the negative logarithm of the EC50 (pEC50) with 3D7 P. falciparum strain was 7.22; in the test on W2 strain, 7.09.

Consider `CC1(C)Cn2c(nc(-c3ccc(F)cc3)c2Nc2ccc(Cl)c(F)c2)CN1C(=O)CN` [Compound 576], for which the negative-log EC50 (pEC50) in the test with 3D7 P. falciparum strain was 6.70; with W2 strain it was 6.63.

`CC(C)N(c1cccc(F)c1)c1c(-c2ccc(F)cc2)nc2n1CCNC2` [Compound 445]: the figures for the pEC50 with 3D7 P. falciparum strain and with W2 strain were 5.59 and 5.49, respectively.

On to `CC1(C)NC(=O)Cn2c1nc(-c1ccc(F)cc1)c2Nc1ccc(F)c(C#N)c1` [Compound 537], for which the pEC50 with 3D7 P. falciparum strain was 4.92; in the test with W2 strain, 5.08.

Regarding `CC1(C)Cn2c(nc(-c3ccc(F)cc3)c2Nc2ccc(F)c(F)c2)CN1` [Compound 580], the pEC50 in the test with 3D7 P. falciparum strain was 6.82; in the test on W2 strain, 6.77.

On to `Cc1cc(Nc2c(-c3ccc(F)cc3)nc3n2CCN(C(=O)C(C)(C)N)C3)cc(C)c1F` [Compound 428], for which the pEC50 with 3D7 P. falciparum strain is 6.77; in the test on W2 strain it was 6.62.

On to `Cc1ccc(Nc2c(-c3ccc(F)cc3)nc3n2CCN(C(=O)CN)C3(C)C)cc1` [Compound 409], for which the pEC50 in the test with 3D7 P. falciparum strain was 8.00; in the test on W2 strain, 8.22.

Consider `N[C@@H](Cc1ccc(F)c(F)c1)C(=O)N1CCn2c(nc(-c3ccc(F)cc3)c2Nc2ccc(F)cc2)C1` [Compound 475], for which the pEC50 is 7.40 in the test with 3D7 P. falciparum strain and 7.52 in the test with W2 strain.

For the molecule `CC1(C)Cn2c(nc(-c3ccc(F)cc3)c2Nc2ccc(C#N)c(F)c2)CN1C(=O)CN` [Compound 577], the pEC50 in the test on 3D7 P. falciparum strain was 6.20; in the test with W2 strain, 6.21.

For the molecule `CC(C)(N)C(=O)N1CCn2c(nc(-c3ccc(F)cc3)c2Nc2ccc(Cl)c(Cl)c2)C1` [Compound 410], the negative logarithm of the EC50 (pEC50) with 3D7 P. falciparum strain is 7.22; in the test with W2 strain it was 7.43.

On to `CC1(C)NCCn2c1nc(-c1ccc(F)cc1)c2Nc1cc(F)c(F)c(F)c1` [Compound 555], for which the negative logarithm of the EC50 (pEC50) with 3D7 P. falciparum strain is 8.00; in the test on W2 strain it was 7.80.

As for `CN[C@@H](Cc1ccc(Cl)cc1)C(=O)N1CCn2c(nc(-c3ccc(F)cc3)c2Nc2ccc(C)cc2)C1` [Compound 400], the pEC50 with 3D7 P. falciparum strain is 6.74; with W2 strain, 6.98.

Turning to `Cc1ccc(Nc2c(-c3ccc(F)cc3)nc3n2CC(=O)NC3(C)C)cc1` [Compound 507], the results for the pEC50 in the test on 3D7 P. falciparum strain and in the test with W2 strain were 6.85 and 6.87, respectively.

`Cc1ccc(C[C@H](N)C(=O)N2CCn3c(nc(-c4ccc(F)cc4)c3Nc3ccc(Cl)cc3)C2)cc1` [Compound 459]: the negative logarithm of the EC50 (pEC50) with 3D7 P. falciparum strain was 7.40; with W2 strain it was 7.62.

On to `CC1(C)c2nc(-c3ccc(F)cc3)c(Nc3ccc(C#N)cc3)n2CCN1C(=O)CN` [Compound 425], for which the pEC50 in the test on 3D7 P. falciparum strain is 8.00; in the test on W2 strain, 7.92.

`CC1(C)NC(=O)Cn2c1nc(-c1ccc(F)cc1)c2Nc1ccc(S(C)(=O)=O)cc1` [Compound 567]: the figures for the pEC50 with 3D7 P. falciparum strain and in the test on W2 strain were 5.19 and 5.07, respectively.

As for `Cc1ccc(Nc2c(-c3ccc(F)cc3)nc3n2CC(C)(C)NC3)cc1` [Compound 578], the negative logarithm of the EC50 (pEC50) in the test on 3D7 P. falciparum strain is 6.60; in the test with W2 strain, 6.47.

In the case of `Cc1ccc(Nc2c(-c3ccc(F)c(C)c3)nc3n2CCN(C(=O)C(C)(C)N)C3)cc1` [Compound 518], the pEC50 in the test on 3D7 P. falciparum strain is 5.30; in the test on W2 strain, 5.54.

With `Cc1ccc(Nc2c(-c3ccc(F)c(Cl)c3)nc3n2CCN(C(=O)CN)C3)cc1` [Compound 519], the values for the negative-log EC50 (pEC50) in the test on 3D7 P. falciparum strain and in the test on W2 strain were 6.08 and 6.23, respectively.

Consider `CC1(C)NCCn2c1nc(-c1ccc(F)cc1)c2Nc1ccc(F)c(F)c1` [Compound 422], for which the negative-log EC50 (pEC50) in the test with 3D7 P. falciparum strain was 8.00; with W2 strain, 7.68.

Regarding `Cc1ccc(Nc2c(-c3ccc(F)cc3)nc3n2CCNC3(C)C)cc1C(=O)O` [Compound 526], the negative logarithm of the EC50 (pEC50) was 5.95 in the test on 3D7 P. falciparum strain and 6.01 in the test with W2 strain.

With `Cc1ccc(Nc2c(-c3ccc(Cl)c(F)c3)nc3n2CCN(C(=O)CN)C3)cc1` [Compound 520], the pEC50 in the test on 3D7 P. falciparum strain and in the test on W2 strain was 6.80 in each case.

In the case of `CCN1CCCC1CNc1c(-c2ccc(F)cc2)nc2n1CC(=O)NC2(C)C` (stereo not shown) [Compound 561], the pEC50 with 3D7 P. falciparum strain is 5.14; with W2 strain, 5.36.

Consider `COc1cc(Nc2c(-c3ccc(F)cc3)nc3n2CCN(C(=O)C(C)(C)N)C3)cc(F)c1F` [Compound 427], for which the values for the negative logarithm of the EC50 (pEC50) in the test on 3D7 P. falciparum strain and with W2 strain were 6.68 and 6.36, respectively.

With `Cc1ccc(Nc2c(-c3ccc(F)cc3)nc3n2CCN(C(=O)[C@@H](N)Cc2ccc(F)cc2)C3)cc1` [Compound 483], the negative logarithm of the EC50 (pEC50) was 7.30 in the test on 3D7 P. falciparum strain and 7.60 with W2 strain.

As to `N[C@H](C(=O)N1CCn2c(nc(-c3ccc(F)cc3)c2Nc2ccc(Cl)c(F)c2)C1)C1CC1` [Compound 487], the figures for the negative logarithm of the EC50 (pEC50) in the test on 3D7 P. falciparum strain and with W2 strain were 7.40 and 7.51, respectively.

In the case of `N[C@H](C(=O)N1CCn2c(nc(-c3ccc(F)cc3)c2Nc2ccc(F)c(F)c2)C1)c1ccc(F)cc1` [Compound 436], the values for the pEC50 with 3D7 P. falciparum strain and in the test on W2 strain were 7.52 and 7.28, respectively.

Consider `CC1(C)NC(=O)Cn2c1nc(-c1ccc(F)c(F)c1)c2Nc1ccc(Cl)c(F)c1` [Compound 551], for which the negative logarithm of the EC50 (pEC50) in the test on 3D7 P. falciparum strain was 7.40; with W2 strain, 7.01.

With `Cc1ccc(Nc2c(-c3ccc(F)cc3)nc3n2CCN(C(=O)[C@@H](N)Cc2cscn2)C3)cc1` [Compound 486], the pEC50 in the test with 3D7 P. falciparum strain was 7.52; with W2 strain, 7.80.

Regarding `O=C([C@@H]1CCN1)N1CCn2c(nc(-c3ccc(F)cc3)c2Nc2ccc(Cl)cc2)C1` [Compound 462], the negative logarithm of the EC50 (pEC50) in the test with 3D7 P. falciparum strain is 7.30; with W2 strain, 7.43.

As for `CC(C)[C@H](O)C(=O)N1CCn2c(nc(-c3ccc(F)cc3)c2Nc2ccc(Cl)c(F)c2)C1` [Compound 489], the pEC50 in the test on 3D7 P. falciparum strain was 8.00; in the test with W2 strain, 8.05.

Consider `C[C@@H]1NC(=O)Cn2c1nc(-c1ccc(F)cc1)c2Nc1ccc(Cl)c(F)c1` [Compound 559], for which the pEC50 in the test with 3D7 P. falciparum strain was 6.28; in the test on W2 strain, 6.19.

Consider `CN1CC(C)(C)n2c(nc(-c3ccc(F)cc3)c2Nc2ccc(F)cc2)C1(C)C` [Compound 536], for which the pEC50 with 3D7 P. falciparum strain was 5.19; in the test on W2 strain, 5.23.

Consider `CC(C)(N)C(=O)N1CCn2c(nc(-c3ccc(F)cc3)c2Nc2ccc(Cl)c(Cl)c2)C1(C)C` [Compound 587], for which the negative logarithm of the EC50 (pEC50) in the test with 3D7 P. falciparum strain is 8.00; in the test on W2 strain, 7.92.

As for `COc1ccc(Nc2c(-c3ccc(F)cc3)nc3n2CC(=O)NC3(C)C)cn1` [Compound 545], the negative-log EC50 (pEC50) was 5.47 with 3D7 P. falciparum strain and 5.25 with W2 strain.

In the case of `CC(C)(N)C(=O)N1CCn2c(nc(-c3ccc(F)cc3)c2Nc2ccc(F)c(Cl)c2)C1(C)C` [Compound 586], the negative logarithm of the EC50 (pEC50) with 3D7 P. falciparum strain is 8.00; in the test with W2 strain it was 8.15.

As for `Cc1ccc(Nc2c(-c3ccc(F)cc3)nc3n2CCN(C(=O)[C@@H](N)Cc2ccc(F)c(F)c2)C3)cc1` [Compound 485], the pEC50 in the test on 3D7 P. falciparum strain is 7.52; with W2 strain it was 7.64.

Turning to `CC(C)(N)C(=O)N1CCn2c(nc(-c3ccc(F)cc3)c2Nc2ccc(F)c(F)c2)C1(C)C` [Compound 585], the pEC50 with 3D7 P. falciparum strain is 8.00; in the test with W2 strain, 8.15.

In the case of `C[C@H](N)C(=O)N1CCn2c(nc(-c3ccc(F)cc3)c2Nc2ccc(F)c(F)c2)C1` [Compound 435], the results for the pEC50 in the test with 3D7 P. falciparum strain and in the test on W2 strain were 7.30 and 7.01, respectively.
